Legend:
Test in all cases: biochemical
ALK(L1196M) = ALK(L1196M) (Homo sapiens, UniProt Q9UM73, L1196M)
Summary of the method: (§1)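 Reactions at room temperature in HEPES buffer (20 mM, pH 7.5, 0.01% Triton X-100, 2 mM DTT) lasted 1 or 5 h depending on kinase, with substrate peptide and ATP-metal. Phosphorylation read by electrophoretic mobility shift or IMAP polarization; kinase activity computed as P/(P + S).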

ALK(R1275Q) = ALK(R1275Q) (Homo sapiens, UniProt Q9UM73, R1275Q)
Summary of the method: as §1

AMPKα1/β1/γ1 = biological target: T1, AMPKα1/β1/γ1 (Homo sapiens, UniProt Q13131)
T1 construct: gene PRKAA1
Summary of the method: as §1

BRSK1 = BRSK1 (Homo sapiens, UniProt Q8TDC3)
BRSK1, sequence (Q8TDC3 whole entry): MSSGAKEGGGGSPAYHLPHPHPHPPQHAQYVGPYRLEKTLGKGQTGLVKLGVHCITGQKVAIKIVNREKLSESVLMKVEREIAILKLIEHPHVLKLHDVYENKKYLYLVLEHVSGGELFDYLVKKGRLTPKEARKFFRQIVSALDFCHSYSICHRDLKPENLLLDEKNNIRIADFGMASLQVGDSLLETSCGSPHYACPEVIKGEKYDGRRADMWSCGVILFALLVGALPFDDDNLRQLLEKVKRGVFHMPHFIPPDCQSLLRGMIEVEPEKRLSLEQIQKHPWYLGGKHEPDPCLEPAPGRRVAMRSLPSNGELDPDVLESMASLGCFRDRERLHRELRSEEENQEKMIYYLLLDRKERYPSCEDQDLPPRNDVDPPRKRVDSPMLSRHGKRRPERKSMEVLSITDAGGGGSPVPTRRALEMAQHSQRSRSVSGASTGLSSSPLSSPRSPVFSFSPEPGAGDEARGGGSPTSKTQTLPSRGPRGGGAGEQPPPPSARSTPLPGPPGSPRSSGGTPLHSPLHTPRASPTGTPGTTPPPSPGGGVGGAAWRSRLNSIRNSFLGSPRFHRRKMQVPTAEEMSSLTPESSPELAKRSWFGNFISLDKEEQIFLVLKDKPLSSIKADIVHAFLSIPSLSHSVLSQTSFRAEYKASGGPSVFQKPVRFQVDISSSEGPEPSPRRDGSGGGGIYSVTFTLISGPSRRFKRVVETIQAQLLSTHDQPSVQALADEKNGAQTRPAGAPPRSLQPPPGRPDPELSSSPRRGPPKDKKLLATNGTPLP
Summary of the method: as §1

CHK1 = biological target: T2, CHK1 (Homo sapiens, UniProt O14757)
T2 construct: gene CHEK1
Summary of the method: as §1

CHK2 = biological target: T3, CHK2 (Homo sapiens, UniProt O96017)
T3 construct: gene CHEK2
Summary of the method: as §1

CK1γ1 = biological target: T4, CK1γ1 (Homo sapiens, UniProt Q9HCP0)
T4 construct: gene CSNK1G1
T4 sequence (Q9HCP0 whole entry): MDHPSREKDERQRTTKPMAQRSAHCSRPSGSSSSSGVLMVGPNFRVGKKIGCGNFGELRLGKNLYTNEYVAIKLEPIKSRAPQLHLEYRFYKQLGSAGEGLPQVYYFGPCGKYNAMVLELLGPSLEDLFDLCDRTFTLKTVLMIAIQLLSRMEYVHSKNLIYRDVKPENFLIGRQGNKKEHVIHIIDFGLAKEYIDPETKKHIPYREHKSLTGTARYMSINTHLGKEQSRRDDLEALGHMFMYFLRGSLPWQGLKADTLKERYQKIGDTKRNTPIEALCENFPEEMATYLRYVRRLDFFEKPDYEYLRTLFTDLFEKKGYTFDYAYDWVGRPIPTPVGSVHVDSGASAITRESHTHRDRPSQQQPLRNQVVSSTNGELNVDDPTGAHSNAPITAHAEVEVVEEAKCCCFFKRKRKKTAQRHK
Summary of the method: as §1

FAK = biological target: T5, FAK (Homo sapiens, UniProt Q05397)
T5 construct: gene PTK2
Summary of the method: as §1

FGFR2 = FGFR2 (Homo sapiens, UniProt P21802)
Summary of the method: as §1

FGFR3(K650M) = FGFR3(K650M) (Homo sapiens, UniProt P22607, K650M)
Summary of the method: as §1

FGFR4(V550E) = FGFR4(V550E) (Homo sapiens, UniProt P22455, V550E)
Summary of the method: as §1

INSR = INSR (Homo sapiens, UniProt P06213)
Summary of the method: as §1

MER = biological target: T6, MER (Homo sapiens, UniProt Q12866)
T6 construct: gene MERTK
Summary of the method: as §1

MGC42105 = biological target: T7, MGC42105 (Homo sapiens, UniProt Q8IY84)
T7 construct: gene NIM1K
Summary of the method: as §1

MSK1 = biological target: T8, MSK1 (Homo sapiens, UniProt O75582)
T8 construct: gene RPS6KA5
Summary of the method: as §1

PBK = PBK (Homo sapiens, UniProt Q96KB5)
PBK, sequence (Q96KB5 whole entry): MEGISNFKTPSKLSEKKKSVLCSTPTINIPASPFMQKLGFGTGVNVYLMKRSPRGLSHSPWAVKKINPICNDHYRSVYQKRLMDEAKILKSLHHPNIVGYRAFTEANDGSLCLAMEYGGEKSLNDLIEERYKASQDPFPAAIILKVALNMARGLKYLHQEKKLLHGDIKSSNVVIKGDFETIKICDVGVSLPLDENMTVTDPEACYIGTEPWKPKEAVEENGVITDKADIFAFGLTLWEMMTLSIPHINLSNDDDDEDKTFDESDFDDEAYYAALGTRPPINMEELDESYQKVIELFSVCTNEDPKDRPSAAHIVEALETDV
Summary of the method: as §1

PDGFRα(D842V) = biological target: T9, PDGFRα(D842V) (Homo sapiens, UniProt P16234, D842V)
T9 construct: gene PDGFRA
Summary of the method: as §1

PHKG1 = PHKG1 (Homo sapiens, UniProt Q16816)
Summary of the method: as §1

PKCι = biological target: T10, PKCι (Homo sapiens, UniProt P41743)
T10 construct: gene PRKCI
Summary of the method: as §1

PLK2 = PLK2 (Homo sapiens, UniProt Q9NYY3)
Summary of the method: as §1

QIK = biological target: T11, QIK (Homo sapiens, UniProt Q9H0K1)
T11 construct: gene SIK2
T11 sequence (Q9H0K1 whole entry): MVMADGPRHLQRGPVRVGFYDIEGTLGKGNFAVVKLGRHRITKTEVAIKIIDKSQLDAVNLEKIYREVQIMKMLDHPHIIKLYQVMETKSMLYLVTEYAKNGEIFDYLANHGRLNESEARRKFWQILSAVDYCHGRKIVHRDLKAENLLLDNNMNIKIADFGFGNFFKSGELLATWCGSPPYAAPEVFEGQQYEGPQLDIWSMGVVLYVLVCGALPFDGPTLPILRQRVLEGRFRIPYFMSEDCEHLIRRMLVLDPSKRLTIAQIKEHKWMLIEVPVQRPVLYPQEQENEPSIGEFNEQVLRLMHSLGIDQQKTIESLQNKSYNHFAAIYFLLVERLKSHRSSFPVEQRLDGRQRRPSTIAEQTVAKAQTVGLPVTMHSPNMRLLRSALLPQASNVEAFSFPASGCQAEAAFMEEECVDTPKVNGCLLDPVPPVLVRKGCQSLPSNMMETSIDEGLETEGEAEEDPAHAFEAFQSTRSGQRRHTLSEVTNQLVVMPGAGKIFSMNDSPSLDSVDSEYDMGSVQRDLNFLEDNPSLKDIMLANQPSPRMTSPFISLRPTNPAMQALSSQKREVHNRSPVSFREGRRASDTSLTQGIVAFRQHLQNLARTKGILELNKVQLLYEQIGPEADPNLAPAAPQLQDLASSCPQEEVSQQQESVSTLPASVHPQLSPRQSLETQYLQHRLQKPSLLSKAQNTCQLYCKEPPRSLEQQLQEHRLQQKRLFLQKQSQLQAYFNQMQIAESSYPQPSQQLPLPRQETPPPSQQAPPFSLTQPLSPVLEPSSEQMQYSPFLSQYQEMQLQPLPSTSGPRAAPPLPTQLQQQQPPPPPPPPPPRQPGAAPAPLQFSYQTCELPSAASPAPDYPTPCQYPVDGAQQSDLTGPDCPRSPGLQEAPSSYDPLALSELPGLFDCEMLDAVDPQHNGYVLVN
Summary of the method: as §1

RET(S891A) = RET(S891A) (Homo sapiens, UniProt P07949, S891A)
Summary of the method: as §1

RSK3 = biological target: T12, RSK3 (Homo sapiens, UniProt Q15349)
T12 construct: gene RPS6KA2
Summary of the method: as §1

SLK = SLK (Homo sapiens, UniProt Q9H2G2)
SLK, sequence (Q9H2G2 whole entry): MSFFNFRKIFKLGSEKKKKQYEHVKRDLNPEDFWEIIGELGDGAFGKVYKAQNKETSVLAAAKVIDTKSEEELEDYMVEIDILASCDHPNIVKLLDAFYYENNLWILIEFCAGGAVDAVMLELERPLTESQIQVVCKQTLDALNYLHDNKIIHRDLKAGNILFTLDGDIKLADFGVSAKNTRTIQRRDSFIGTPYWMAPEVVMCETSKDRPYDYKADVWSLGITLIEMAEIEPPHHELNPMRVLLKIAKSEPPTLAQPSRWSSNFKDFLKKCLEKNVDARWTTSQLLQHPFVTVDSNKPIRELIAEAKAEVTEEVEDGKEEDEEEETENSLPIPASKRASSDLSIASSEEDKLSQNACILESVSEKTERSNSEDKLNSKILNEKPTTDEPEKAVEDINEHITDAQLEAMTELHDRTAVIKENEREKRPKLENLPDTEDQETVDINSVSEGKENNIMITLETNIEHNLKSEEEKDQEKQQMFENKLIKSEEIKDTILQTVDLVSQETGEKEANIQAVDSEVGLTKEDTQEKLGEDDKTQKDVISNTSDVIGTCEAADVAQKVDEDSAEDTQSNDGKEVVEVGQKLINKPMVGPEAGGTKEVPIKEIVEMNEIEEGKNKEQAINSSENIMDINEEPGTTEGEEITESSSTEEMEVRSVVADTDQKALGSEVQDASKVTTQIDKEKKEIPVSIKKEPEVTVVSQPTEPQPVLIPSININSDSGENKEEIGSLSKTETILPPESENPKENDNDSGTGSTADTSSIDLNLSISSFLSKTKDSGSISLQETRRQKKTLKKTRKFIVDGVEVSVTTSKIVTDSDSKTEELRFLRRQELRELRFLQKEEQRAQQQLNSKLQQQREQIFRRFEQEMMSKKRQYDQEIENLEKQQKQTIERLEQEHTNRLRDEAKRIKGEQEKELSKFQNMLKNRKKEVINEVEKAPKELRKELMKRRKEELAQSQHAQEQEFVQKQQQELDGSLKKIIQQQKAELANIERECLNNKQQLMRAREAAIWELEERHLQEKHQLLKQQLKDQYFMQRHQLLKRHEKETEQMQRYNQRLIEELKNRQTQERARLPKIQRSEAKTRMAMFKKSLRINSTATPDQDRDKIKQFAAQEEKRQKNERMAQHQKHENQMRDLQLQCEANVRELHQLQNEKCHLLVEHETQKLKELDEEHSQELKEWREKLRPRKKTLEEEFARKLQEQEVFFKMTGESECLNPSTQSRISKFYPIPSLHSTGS
Summary of the method: as §1

SRPK1 = SRPK1 (Homo sapiens, UniProt Q96SB4)
SRPK1, sequence (Q96SB4 whole entry): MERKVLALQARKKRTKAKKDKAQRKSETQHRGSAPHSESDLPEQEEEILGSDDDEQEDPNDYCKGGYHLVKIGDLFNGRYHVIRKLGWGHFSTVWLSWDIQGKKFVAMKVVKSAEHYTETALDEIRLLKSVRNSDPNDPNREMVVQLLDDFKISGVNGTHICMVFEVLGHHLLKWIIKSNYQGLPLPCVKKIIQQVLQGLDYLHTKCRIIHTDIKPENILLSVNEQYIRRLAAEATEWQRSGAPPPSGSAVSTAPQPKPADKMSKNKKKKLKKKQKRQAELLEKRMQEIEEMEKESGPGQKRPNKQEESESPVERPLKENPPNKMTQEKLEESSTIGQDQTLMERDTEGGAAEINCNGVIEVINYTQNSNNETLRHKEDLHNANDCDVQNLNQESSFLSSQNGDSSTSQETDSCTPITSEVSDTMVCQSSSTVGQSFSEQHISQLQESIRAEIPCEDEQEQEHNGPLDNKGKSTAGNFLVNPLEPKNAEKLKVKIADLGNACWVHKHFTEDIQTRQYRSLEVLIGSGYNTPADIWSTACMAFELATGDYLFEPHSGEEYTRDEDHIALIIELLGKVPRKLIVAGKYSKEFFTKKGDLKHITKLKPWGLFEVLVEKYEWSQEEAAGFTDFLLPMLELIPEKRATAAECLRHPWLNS
Summary of the method: as §1

TRKC = biological target: T13, TRKC (Homo sapiens, UniProt Q16288)
T13 construct: gene NTRK3
Summary of the method: as §1

TYRO3 = TYRO3 (Homo sapiens, UniProt Q06418)
Summary of the method: as §1

YES(T348I) = biological target: T14, YES(T348I) (Homo sapiens, UniProt P07947, T348I)
T14 construct: gene YES1
Summary of the method: as §1

p38α = biological target: T15, p38α (Homo sapiens, UniProt Q16539)
T15 construct: gene MAPK14
Summary of the method: as §1

skMLCK = biological target: T16, skMLCK (Homo sapiens, UniProt Q9H1R3)
T16 construct: gene MYLK2
T16 sequence (Q9H1R3 whole entry): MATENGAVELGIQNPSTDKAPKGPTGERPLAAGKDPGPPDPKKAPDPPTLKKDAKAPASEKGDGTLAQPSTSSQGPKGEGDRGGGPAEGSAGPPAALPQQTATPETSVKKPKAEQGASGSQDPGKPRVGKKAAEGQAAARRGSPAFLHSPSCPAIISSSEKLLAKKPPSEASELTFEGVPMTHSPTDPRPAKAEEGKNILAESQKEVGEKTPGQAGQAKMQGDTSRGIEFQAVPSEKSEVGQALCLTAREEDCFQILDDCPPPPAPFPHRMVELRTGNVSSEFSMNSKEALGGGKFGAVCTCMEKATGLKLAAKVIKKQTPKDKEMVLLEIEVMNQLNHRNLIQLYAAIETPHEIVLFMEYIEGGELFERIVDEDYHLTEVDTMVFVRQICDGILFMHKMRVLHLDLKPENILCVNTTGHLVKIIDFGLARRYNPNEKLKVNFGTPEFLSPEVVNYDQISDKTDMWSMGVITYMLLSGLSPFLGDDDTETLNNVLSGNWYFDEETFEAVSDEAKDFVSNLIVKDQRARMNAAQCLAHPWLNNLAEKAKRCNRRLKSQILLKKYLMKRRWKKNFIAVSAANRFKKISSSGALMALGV
Summary of the method: as §1

c1cc(-c2ccc3[nH]ncc3c2)ccn1 [TG693, 5-(4-pyridinyl)-1H-indazole]
inhibition at 1 µM (ALK(L1196M)): 2.6% | inhibition at 1 µM (ALK(R1275Q)): -7.6% | inhibition at 1 µM (AMPKα1/β1/γ1): -6.5% | inhibition at 1 µM (BRSK1): 1.1% | inhibition at 1 µM (CHK1): 1.7% | inhibition at 1 µM (CHK2): -1% | inhibition at 1 µM (CK1γ1): 5% | inhibition at 1 µM (FAK): 3.6% | inhibition at 1 µM (FGFR2): 1.7% | inhibition at 1 µM (FGFR3(K650M)): 7.8% | inhibition at 1 µM (FGFR4(V550E)): -4.1% | inhibition at 1 µM (INSR): -5.9% | inhibition at 1 µM (MER): 3% | inhibition at 1 µM (MGC42105): -22.2% | inhibition at 1 µM (MSK1): 1.2% | inhibition at 1 µM (PBK): -3.5% | inhibition at 1 µM (PDGFRα(D842V)): 0.8% | inhibition at 1 µM (PHKG1): 0% | inhibition at 1 µM (PKCι): -6.8% | inhibition at 1 µM (PLK2): 2.9% | inhibition at 1 µM (QIK): 3.4% | inhibition at 1 µM (RET(S891A)): -18% | inhibition at 1 µM (RSK3): -4.8% | inhibition at 1 µM (SLK): 1.2% | inhibition at 1 µM (SRPK1): 0.6% | inhibition at 1 µM (TRKC): 7.7% | inhibition at 1 µM (TYRO3): 0.3% | inhibition at 1 µM (YES(T348I)): -1.4% | inhibition at 1 µM (p38α): -0.1% | inhibition at 1 µM (skMLCK): 0.9%

Source: article PMC5448077, “Development of an orally available inhibitor of CLK1 for skipping a mutated dystrophin exon in Duchenne muscular dystrophy” (Scientific Reports, 2017)
